The source made the active and inactive calls.
Assays:
Estrogen receptor = target: T1, Estrogen receptor (Homo sapiens, UniProt P03372); experiment: potentiators of ERα–SRC-1 coactivator binding, dose response, biochemical, TR-FRET, ERα LBD (AID 737)
T1 sequence (P03372 whole entry): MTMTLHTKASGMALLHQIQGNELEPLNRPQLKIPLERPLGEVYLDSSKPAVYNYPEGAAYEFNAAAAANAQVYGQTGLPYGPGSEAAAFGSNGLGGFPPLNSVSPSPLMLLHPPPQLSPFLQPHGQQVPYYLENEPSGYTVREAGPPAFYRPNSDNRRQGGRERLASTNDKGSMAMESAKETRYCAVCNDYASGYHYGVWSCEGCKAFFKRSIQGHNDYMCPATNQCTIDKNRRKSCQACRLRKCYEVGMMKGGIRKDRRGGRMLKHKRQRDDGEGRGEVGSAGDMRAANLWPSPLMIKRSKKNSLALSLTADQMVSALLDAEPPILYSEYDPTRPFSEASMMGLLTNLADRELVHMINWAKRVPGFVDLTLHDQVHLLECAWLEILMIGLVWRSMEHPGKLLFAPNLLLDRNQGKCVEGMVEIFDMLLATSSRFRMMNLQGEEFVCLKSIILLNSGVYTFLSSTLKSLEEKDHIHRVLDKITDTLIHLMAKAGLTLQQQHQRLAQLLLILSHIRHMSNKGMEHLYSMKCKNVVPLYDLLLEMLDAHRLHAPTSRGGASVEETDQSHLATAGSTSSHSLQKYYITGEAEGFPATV

[1] = HepG2 cell cytotoxicity, dose response, cytotoxicity control, plate reader, cherry-pick, antagonist series (AID 743416); type: functional, cell-based
[2] = LGR2 antagonists, dose response, cell-based, HEK293, CRE-luciferase reporter, cherry pick, set 2 (AID 743343); type: functional;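 further: transfected cells were stimulated with diluted bursicon conditioned medium after compound addition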
[3] = MC4R antagonists, dose response, counter-screen for LGR2 antagonist project, cell-based, plate reader, cherry pick (AID 743444); type: functional;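 further: transfected HEK 293 cells stimulated with alpha-MSH peptide; potency of inhibitors of the alpha-MSH evoked signal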
[4] = HEK293 cell cytotoxicity, dose response, cytotoxicity control, plate reader, cherry-picked samples (AID 743446); type: functional, cell-based
Bcl-2-like protein 10 = target: T2, Bcl-2-like protein 10 (Homo sapiens, UniProt Q9HD36); experiment: Biochemical TR3 FP assay of Bcl-B inhibitor potency, EC50 (AID 1243); type: functional
T2 sequence (Q9HD36 whole entry): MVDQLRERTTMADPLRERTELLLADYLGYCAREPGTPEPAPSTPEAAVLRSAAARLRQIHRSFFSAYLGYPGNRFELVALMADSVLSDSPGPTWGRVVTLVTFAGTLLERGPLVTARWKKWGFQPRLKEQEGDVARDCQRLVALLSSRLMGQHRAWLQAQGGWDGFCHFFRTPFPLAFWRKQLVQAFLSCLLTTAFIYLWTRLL

[5] = target: G2/mitotic-specific cyclin-B1 (Homo sapiens, UniProt P14635); experiment: Counterscreen assay for inhibitors of Wee1 degradation: dose response cell-based assay to identify inhibitors of cyclin B degradation. [Related pubchem assays: 1410, 1321 ]; type: functional
Chain of G2/mitotic-specific cyclin-B1 (P14635 whole entry): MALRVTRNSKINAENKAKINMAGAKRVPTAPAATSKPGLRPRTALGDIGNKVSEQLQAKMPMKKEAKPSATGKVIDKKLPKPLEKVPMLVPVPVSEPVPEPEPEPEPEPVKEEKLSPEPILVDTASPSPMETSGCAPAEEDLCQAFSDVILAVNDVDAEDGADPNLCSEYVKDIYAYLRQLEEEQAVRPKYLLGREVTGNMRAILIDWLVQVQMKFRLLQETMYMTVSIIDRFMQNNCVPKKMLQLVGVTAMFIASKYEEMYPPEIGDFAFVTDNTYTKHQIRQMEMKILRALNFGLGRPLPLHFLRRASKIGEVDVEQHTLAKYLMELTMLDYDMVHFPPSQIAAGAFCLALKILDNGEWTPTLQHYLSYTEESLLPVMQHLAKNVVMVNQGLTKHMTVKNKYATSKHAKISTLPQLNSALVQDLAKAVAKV

[6] = inhibitors of firefly luciferase expression or activity, dose response, H4 neuroglioma cells, luminescence (AID 1990); type: functional, cell-based
Wee1-like protein kinase = Wee1-like protein kinase (Homo sapiens, UniProt P30291); experiment: Dose Response Cell-based Assay for Inhibitors of Wee1 Degradation. [Related pubchem assays: 1410, 1321 ]; type: functional
Chain of Wee1-like protein kinase (P30291 whole entry): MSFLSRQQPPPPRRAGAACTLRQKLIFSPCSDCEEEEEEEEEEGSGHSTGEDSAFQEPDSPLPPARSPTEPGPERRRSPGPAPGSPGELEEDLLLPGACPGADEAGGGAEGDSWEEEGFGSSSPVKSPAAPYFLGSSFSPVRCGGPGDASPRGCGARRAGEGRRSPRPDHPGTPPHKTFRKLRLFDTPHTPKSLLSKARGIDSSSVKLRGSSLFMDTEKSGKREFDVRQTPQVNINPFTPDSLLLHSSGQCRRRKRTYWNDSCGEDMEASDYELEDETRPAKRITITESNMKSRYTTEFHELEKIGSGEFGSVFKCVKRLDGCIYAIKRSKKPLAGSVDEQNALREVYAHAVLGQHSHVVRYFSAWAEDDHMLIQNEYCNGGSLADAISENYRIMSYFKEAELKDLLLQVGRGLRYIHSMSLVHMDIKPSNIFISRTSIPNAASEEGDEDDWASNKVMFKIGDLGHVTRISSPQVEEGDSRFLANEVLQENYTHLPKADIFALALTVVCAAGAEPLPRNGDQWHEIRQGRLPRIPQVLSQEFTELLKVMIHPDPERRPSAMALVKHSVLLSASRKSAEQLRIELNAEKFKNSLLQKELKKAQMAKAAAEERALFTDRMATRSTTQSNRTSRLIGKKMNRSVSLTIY

[7] = Luminescence Cell-Based Dose Response HTS to Identify Inhibitors of 5'UTR Stem-Loop Driven Prion Protein mRNA Translation in H4 Neuroglioblastoma Cells. [Related pubchem assays: 1827 (Project Summary), 1813 (Primary HTS)]; type: functional
[8] = inhibitors of SNCA 5'UTR-driven reporter translation, confirmation, H4 neuroglioma cells, luminescence (AID 1988); type: functional, cell-based
Cysteine protease ATG4B = target: T3, Cysteine protease ATG4B (Homo sapiens, UniProt Q9Y4P1); type: functional;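 further: Fluorescence-based dose-response confirmation assay measuring inhibition of ATG4B activity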
T3 sequence (Q9Y4P1 whole entry): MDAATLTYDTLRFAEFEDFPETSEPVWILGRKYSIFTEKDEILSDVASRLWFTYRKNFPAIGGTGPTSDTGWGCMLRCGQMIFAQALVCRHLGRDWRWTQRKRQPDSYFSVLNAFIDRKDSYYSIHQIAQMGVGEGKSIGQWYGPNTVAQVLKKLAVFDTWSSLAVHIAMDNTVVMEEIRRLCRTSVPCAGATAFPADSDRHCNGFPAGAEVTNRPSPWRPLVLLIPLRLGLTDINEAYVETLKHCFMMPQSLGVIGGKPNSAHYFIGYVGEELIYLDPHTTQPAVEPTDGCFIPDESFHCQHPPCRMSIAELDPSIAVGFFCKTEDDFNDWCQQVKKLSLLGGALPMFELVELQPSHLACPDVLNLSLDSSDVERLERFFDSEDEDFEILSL

Phospholipase A2 = Phospholipase A2 (Homo sapiens, UniProt P04054); type: functional;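 further: confirmatory dose-response counterscreen on phospholipase A2, testing hits that came from an ultra-high-throughput screen for ATG4B inhibitors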
Chain of Phospholipase A2 (P04054 whole entry): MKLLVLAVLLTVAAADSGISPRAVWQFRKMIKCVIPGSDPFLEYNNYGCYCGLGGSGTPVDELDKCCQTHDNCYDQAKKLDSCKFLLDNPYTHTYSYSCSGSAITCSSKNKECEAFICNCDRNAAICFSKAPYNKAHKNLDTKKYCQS

Aspartyl aminopeptidase = Aspartyl aminopeptidase (Plasmodium falciparum 3D7, UniProt Q8I2J3)
Chain of Aspartyl aminopeptidase (Q8I2J3 whole entry): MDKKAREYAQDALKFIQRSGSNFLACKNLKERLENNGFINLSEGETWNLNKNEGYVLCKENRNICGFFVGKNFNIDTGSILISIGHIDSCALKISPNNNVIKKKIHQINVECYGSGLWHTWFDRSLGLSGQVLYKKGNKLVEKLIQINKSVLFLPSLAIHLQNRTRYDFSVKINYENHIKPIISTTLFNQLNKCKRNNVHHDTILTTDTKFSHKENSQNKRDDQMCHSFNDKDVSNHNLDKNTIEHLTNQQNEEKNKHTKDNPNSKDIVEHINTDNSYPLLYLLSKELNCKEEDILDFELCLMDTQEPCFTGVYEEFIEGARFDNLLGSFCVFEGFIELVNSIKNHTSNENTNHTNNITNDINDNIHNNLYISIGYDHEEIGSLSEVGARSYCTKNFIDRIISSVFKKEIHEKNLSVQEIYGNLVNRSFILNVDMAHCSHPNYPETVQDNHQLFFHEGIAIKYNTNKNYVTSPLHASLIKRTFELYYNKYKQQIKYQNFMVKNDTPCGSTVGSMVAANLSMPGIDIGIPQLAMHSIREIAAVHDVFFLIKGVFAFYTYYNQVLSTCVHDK

Procathepsin L = Procathepsin L (Homo sapiens, UniProt P07711)
Chain of Procathepsin L (P07711 whole entry): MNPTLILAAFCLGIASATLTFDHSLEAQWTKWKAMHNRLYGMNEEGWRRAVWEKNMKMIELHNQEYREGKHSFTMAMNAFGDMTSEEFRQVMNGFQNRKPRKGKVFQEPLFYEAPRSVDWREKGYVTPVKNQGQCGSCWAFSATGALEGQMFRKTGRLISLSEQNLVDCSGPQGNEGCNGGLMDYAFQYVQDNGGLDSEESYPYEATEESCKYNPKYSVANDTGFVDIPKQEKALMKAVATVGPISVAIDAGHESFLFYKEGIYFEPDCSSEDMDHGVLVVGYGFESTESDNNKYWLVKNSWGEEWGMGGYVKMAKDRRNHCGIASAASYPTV

Cytochrome P450 3A4 = Cytochrome P450 3A4 (Homo sapiens, UniProt P08684); details: Potency;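 further: confirmatory qHTS run detecting inhibitors and substrates of CYP3A4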
Chain of Cytochrome P450 3A4 (P08684 whole entry): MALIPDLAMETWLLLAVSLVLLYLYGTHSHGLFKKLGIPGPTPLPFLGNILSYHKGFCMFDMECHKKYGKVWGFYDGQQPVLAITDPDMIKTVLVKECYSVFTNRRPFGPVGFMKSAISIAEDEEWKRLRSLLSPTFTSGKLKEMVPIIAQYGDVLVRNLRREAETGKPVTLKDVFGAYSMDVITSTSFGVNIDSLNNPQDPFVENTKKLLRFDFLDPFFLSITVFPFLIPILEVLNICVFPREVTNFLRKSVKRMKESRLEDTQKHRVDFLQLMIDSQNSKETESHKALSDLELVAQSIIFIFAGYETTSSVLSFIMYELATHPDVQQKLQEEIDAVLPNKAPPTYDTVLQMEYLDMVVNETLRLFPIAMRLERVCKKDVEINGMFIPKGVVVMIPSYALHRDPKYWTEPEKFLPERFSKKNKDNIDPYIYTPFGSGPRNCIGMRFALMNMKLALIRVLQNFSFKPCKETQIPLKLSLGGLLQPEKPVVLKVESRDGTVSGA

With `C1COCCO1.O=C(Nc1nc(-c2ccc(S(=O)(=O)N3CCOCC3)cc2)cs1)c1ccccc1` the EC50 (Estrogen receptor) was 15.1 µM (active), the AC50 [1] was 36.7 µM (active) and the AC50 [2] was 42 µM (active). The AC50 [3] was 44.3 µM (active) and the AC50 [4] was > 52 µM (inactive).

In the case of `O=C(O)c1cccc(-c2ccc(/C=N/Nc3ccc([N+](=O)[O-])cn3)o2)c1`, the EC50 (Bcl-2-like protein 10) was 9.64 µM (active).

In the case of `CCCC1=Nc2cc(C(=O)NCc3ccco3)ccc2Sc2ccccc21`, the EC50 [5] was > 49.7 µM (not active), the EC50 [6] was 11.1 µM (inconclusive) and the EC50 (Wee1-like protein kinase) was > 49.7 µM (not active). The EC50 [7] was 11.4 µM (active), the EC50 [8] was 8.6 µM (active) and the IC50 (Cysteine protease ATG4B) was 15.2 µM (active). For the same compound, the IC50 (Phospholipase A2) was 6.93 µM (active).

In the case of `CC1(C)CC(=O)c2c(oc3cc(O)c(O)cc23)C1`, the IC50 (Aspartyl aminopeptidase) was 1.25 µM (active), the IC50 (Procathepsin L) was > 59.6 µM (not active) and the AC50 (Cytochrome P450 3A4) was 31.6 µM (inconclusive).

From ChEMBL document CHEMBL1201862, “PubChem BioAssay data set” (2004)
